Series [1] relates to Escherichia coli strain sensitive to the action of mutagenic substances. The series can be described thus: DNA-repair test. Format: cell-based. The following applies: highest doses, with and without metabolic activation. As to the method: In vitro test, DNA-repair test—The DNA alteration test was conducted with a strain of Escherichia coli sensitive to the action of mutagenic substances. In the study, mitomycin C was used as positive control and penicillin G as negative control.

The subject of the next series is rats (Sprague Dawley). The series is described as follows: Chronic toxicity study, 26 weeks. Format: in vivo. The following applies: rat. As to the method:
Chronic toxicity study—This study was conducted on rats (Sprague Dawley) treated daily for 26 weeks with chondroitin administered p.o. (by gavage) at doses ranging from 50 to 200 mg/Kg. The general state of health and behaviour of the treated animals were monitored daily, and weight variations, haematological status and urine were evaluated every 7 days. […] At the end of the study all animals were euthanized and an autopsy and histopathological analysis of the main organs (lungs, heart, liver, ovaries, uterus, testicles, kidneys, pituitary gland, lymph nodes and gastrointestinal tract) were conducted. None of these evaluations indicated any significant differences between the animals treated with chondroitin and the control animals which received the carrier alone.

For another series, the system named is Wistar rats. The series can be described thus: Study of fertility and reproductive capacity. Type of series: in vivo, rat. How it is done: Study of fertility and reproductive capacity—The toxicology study of the possible effects of chondroitin on male fertility and female reproductive capacity was conducted on 200 Wistar rats (160 females and 40 males), randomised into four groups, each consisting of 40 females and 10 males, treated with 0, 50, 100 or 200 mg/Kg of chondroitin. Each group of female rats was divided in turn into two sub-groups of 20 animals; the first group received the product daily from the 14th day before the start of the mating period until the 19th day of gestation, and the second received it until the 21st day after the birth. All the males were treated with chondroitin for 60 days before mating and throughout the gestation period of the females. The protocol used follows the guidelines of Directive EEC 85/571.

Another series concerns Sprague Dawley rats. The series is described as follows: Subacute toxicity study, 30 days. Type of series: in vivo, rat. As to the method:
Subacute toxicity study—The study was performed on the rat by administering chondroitin orally (p.o.) and intramuscularly (i.m.). For each of the two studies the animals (Sprague Dawley rats) were divided into 4 groups formed by 15 males and 15 females; chondroitin at the concentration of 50, 100 and 200 mg/Kg respectively was administered to the first 3 groups, and the carrier alone to the fourth group; the administration volume was 10 mL/Kg for p.o. administration and 5 mL/Kg for i.m. administration. Daily administration continued for 30 days. The doses used represent up to 20 times the human therapeutic dose. The general state of health and behaviour of the treated animals were monitored daily, and weight variations, haematological status and urine were evaluated every 5 days. […] At the end of the study all animals were euthanized and an autopsy and histopathological analysis of the main organs (lungs, heart, liver, ovaries, uterus, testicles, kidneys and pituitary gland) were conducted. None of these evaluations indicated any significant differences between the animals treated with chondroitin and the control animals which received the carrier alone.

In series [2] the test system is 5 strains of Salmonella typhimurium. The series is described as follows: Ames' test. Type of series: cell-based. The following applies: up to 2.0 mg/plate, with and without metabolic activation. As to the method: The chondroitin mutagenicity studies were conducted on different mutagenicity and genotoxicity models in vitro and in vivo (Sirtori C., File CONDRAL®, Vol. IV—Reproductive Toxicity and Mutagenesis; Slater E. et al., Rapid detection of mutagens and carcinogens, Cancer Res. 1971, 31: 970-973).
In vitro test, Ames' test—The test was performed with and without metabolic activation on 5 strains of Salmonella typhimurium. Chondroitin was tested at concentrations of between 2.0 μg/plate and 2.0 mg/plate.

Series [3] deals with mice or Sprague Dawley rats. The series can be described thus: Acute toxicity study. Format: in vivo, mouse and rat. How it is done: Acute toxicity study—The study was conducted on two animal models, the mouse and rat, to which chondroitin was administered orally (p.o.) or intravenously (i.v.). For each experiment the animals (mice or Sprague Dawley rats) were divided into 5 groups of 20 (10 males and 10 females) which received p.o. or i.v. chondroitin at doses ranging from 250 to 2,000 mg/Kg for oral administration and 20 to 160 mg/Kg for intravenous administration; the volume administered was 10 mL/Kg for p.o. administration and 5 mL/Kg for i.v. administration.
At the end of the treatment the animals were euthanized and a complete autopsy was performed.

“Also recorded” adds a separate entry of the source. Some results are limits rather than exact numbers.

As to chondroitin, the “interaction with / alteration of DNA (DNA-repair test)” value in series [1] was “does not interact and does not alter the DNA; also recorded: Even at higher doses it does not interact and does not alter”. Also, the “chronic toxicity, conclusion” value with rats (Sprague Dawley) (50 to 200 mg/Kg p.o., 26 weeks) is listed as “non-toxic at the doses used”. The “No toxicity (dose), chronic 26 weeks” value in the series with rats (Sprague Dawley) (p.o., daily for 26 weeks) is on record as “No toxicity >200 mg/kg/day p.o”. Besides, in the series with Wistar rats (daily oral administration for 60 days, up to 200 mg/Kg), the “effect on fertility of male rats” value is “no effect on the fertility of male rats; also recorded: the dose of 200 mg/Kg, has no effect on the fertility of male”. Further, the “effect on reproductive capacity of females” value with Wistar rats (daily up to 200 mg/Kg, 15 days before mating to 21st day of lactation) is “no effect on the reproductive capacity of females; also recorded: no effect on the reproductive capacity of the females”. Further, the “subacute toxicity, conclusion” value with Sprague Dawley rats (rat, 50, 100 and 200 mg/Kg p.o. and i.m., 30 days) is “non-toxic at the doses used”. Further, in the series with Sprague Dawley rats (rat, p.o. and i.m., daily for 30 days), the “No toxicity (dose), subacute 30 days” value was “No toxicity >200 mg/kg/day p.o. and i.m”. The “point-reverse mutation (Ames' test)” value in series [2] is recorded as “do not induce a specific point-reverse mutation; also recorded: Up to 2.0 mg/plate: no point-reverse mutation”. In addition, the LD50 in series [3] (acute, single dose i.v., mouse and rat) is over 160 mg/kg. The “signs of toxicity or mortality” value in series [3] (examined every 24 h for 40 days, up to 2,000 mg/Kg p.o., 160 mg/Kg i.v.) is recorded as “no signs of toxicity or mortality were observed”.

The record behind these values is patent publication US10206944B2, “Chondroitin for use in medicine” (ALTERGON S.A., priority 2012, dated 2019).
